Earlier results as cited in US7166295B1, “Methods of treatment and diagnostic visualization, particularly in cancer” (priority 1995, dated 2007).

Conditions: incorporated in liposomes, injected intraperitoneally into mice; compared with injection of the respective free drug

| SMILES | concentration of drug in the plasma, spleen and lymphoid tissue relative to the free drug |
| --- | --- |
| CCCCCCCC/C=C\CCCCCCCC(=O)OCC(COP(=O)(O)OC[C@@H]1CCC(n2ccc(N)nc2=O)O1)OC(=O)CCCCCCC/C=C\CCCCCCCC (some centres unmarked) [DOP-ddc, Dioleoyl-phospathidyl-ddc] | increased concentration of drug in the plasma, spleen and lymphoid tissue |
| CCCCCCCCCCCCCCCC(=O)OCC(COP(=O)(O)OCC1OC(n2cc(C)c(=O)[nH]c2=O)CC1N=[N+]=[N-])OC(=O)CCCCCCCCCCCCCCC (centres unmarked) [DPP-AZT, Dipalmitoyl-phosphatidyl-3′-Azido-3′-deoxythymidine] | increased concentration of drug in the plasma, spleen and lymphoid tissue |
